Source: paper PMC9077236, “Gs protein peptidomimetics as allosteric modulators of the β2-adrenergic receptor” (RSC Advances, 2018)

Tested on: β2AR (β2AR-Δ4 construct, C265 bimane-labelled)
Test: Conformational bimane fluorescence shift assay on purified mBBr-labelled β2AR
Assay type: biochemical
Conditions: increasing concentrations of ISO, saturating at 250 μM and 500 μM
Description: To further investigate their pharmacological profiles, selected peptidomimetics were tested in a bimane fluorescence shift assay (see ESI ^†). […] Stimulation of purified, C265 fluorophore-labelled β2AR with increasing concentrations of ISO results in a concentration-dependent decrease in the fluorescence intensity (FI) and a red-shift of the maximum emission wavelength (λmax) of the bimane-fluorophore probe (Fig. 5A).
Bimane-fluorescence curves in presence of agonist or peptidomimetic alone or in combination were normalised to that of the receptor alone.
Conformational biman e fluorescence assay
Baculovirus es containing the β2AR-Δ4 construct (full-length β 2AR with four mutated
cystein es (C77V, C327S , C378 A and C406A10,11) were generated as pr eviousl y d escribed b y
Rosenbaum et al.12 The modi fied β 2AR wa s ex pre s sed in S f9 insect cel ls using r ecombi na nt
baculovi rus and pu rified b y M1-anti- FLAG im munoaffinit y chr omatograph y. The F LAG -
purified receptor was l abe lled with monobromobimane (mBBr) and purified b y alprenolol
affinit y chr omato graph y as described b y Yao et al. 13 with one minor change; the modified β2AR
was labelled with an excess of 10 µM mBBr (instead of equivalent amounts of β 2AR and
mBBr). […]
ligands and peptide s were subtracted from the samples. Data was analysed b y use of the […]

For `CC(C)NC[C@H](O)c1ccc(O)c(O)c1` [ISO, (−)-isoproterenol], the “Effect on bimane fluorescence (FI and λmax) / receptor conformation” value was “induces an active receptor conformation in a concentration-dependent manner”.
